From US20090175845A1, “METHODS FOR IDENTIFYING COMPOUNDS THAT MODULATE PHB DOMAIN PROTEIN ACTIVITY AND COMPOSITIONS THEREOF” (THE TRUSTEES OF COLUMBIA UNIVERSITY IN THE CITY OF NEW YORK, priority 2005, published 2009)

Tests used:
[1] = tested on: mec-2 null worms expressing the mec-2(C140/174A) gene; assay: C. elegans gentle touch sensitivity on plates with defined sterols; type: in vivo; details: sterol substituted for cholesterol in the growth medium, FIG. 8C
Protocol: C. elegans experiments. C. elegans strains were cultured at 20° C., assayed for touch sensitivity, and prepared for immunofluorescence as described previously [Zhang et al. (2004) Curr. Biol. 14:1888-96; Goodman et al. (2002) Nature 415:1039-42]. Briefly, C. elegans strains were cultured at 20° C. as described in the art. Strains were grown for at least three consecutive generations without starvation before carrying out the experiments described herein. Gentle touch and harsh touch sensitivity were assayed in blind tests by stimulating with an eyebrow hair or prodding with a platinum wire, respectively, as described in the art. To quantify the response, the number of responses in about 30 animals to 10 touches delivered alternately near the head and tail was recorded. Whole-mount immunofluorescence microscopy was carried out using methods known in the art.
Media for growth on limiting or no cholesterol or on other sterols were prepared from chloroform-extracted reagents as described by Matyash et al. [(2004) PLoS Biol. 2: e280].
First, a version of MEC-2 with reduced cholesterol binding was generating by mutating the predicted palmitoylation sites of the protein. Briefly, HEK293T cells were transfected with wild type MEC-2 or MEC-2(C140/174A) and labeled with [^3H]palmitic acid or [^3H]photoaffinity cholesterol. Equal expression of proteins in the lysates was confirmed on Western blots. […] Because touch sensitivity of wild-type animals was not affected by this limited cholesterol depletion, the effects observed with the palmitoylation mutant cannot be attributed to indirect effects on neuronal growth or development. Test compounds that target palmitoylation sites in PHB domain proteins can be used to modulate activity of such proteins, for example, by reducing their activity.

TRPC6 = molecular target: T1, TRPC6 (Homo sapiens, UniProt Q9Y210); assay: Oocyte electrophysiology, two-electrode voltage clamp; type: cell-based; details: TRPC6-expressing Xenopus laevis oocytes, Ca2+ free bath solution, 10 μM
T1 construct: expressed in transfected cells; host or cells: Xenopus laevis oocytes (cRNA injection)
T1 sequence (Q9Y210 1-931): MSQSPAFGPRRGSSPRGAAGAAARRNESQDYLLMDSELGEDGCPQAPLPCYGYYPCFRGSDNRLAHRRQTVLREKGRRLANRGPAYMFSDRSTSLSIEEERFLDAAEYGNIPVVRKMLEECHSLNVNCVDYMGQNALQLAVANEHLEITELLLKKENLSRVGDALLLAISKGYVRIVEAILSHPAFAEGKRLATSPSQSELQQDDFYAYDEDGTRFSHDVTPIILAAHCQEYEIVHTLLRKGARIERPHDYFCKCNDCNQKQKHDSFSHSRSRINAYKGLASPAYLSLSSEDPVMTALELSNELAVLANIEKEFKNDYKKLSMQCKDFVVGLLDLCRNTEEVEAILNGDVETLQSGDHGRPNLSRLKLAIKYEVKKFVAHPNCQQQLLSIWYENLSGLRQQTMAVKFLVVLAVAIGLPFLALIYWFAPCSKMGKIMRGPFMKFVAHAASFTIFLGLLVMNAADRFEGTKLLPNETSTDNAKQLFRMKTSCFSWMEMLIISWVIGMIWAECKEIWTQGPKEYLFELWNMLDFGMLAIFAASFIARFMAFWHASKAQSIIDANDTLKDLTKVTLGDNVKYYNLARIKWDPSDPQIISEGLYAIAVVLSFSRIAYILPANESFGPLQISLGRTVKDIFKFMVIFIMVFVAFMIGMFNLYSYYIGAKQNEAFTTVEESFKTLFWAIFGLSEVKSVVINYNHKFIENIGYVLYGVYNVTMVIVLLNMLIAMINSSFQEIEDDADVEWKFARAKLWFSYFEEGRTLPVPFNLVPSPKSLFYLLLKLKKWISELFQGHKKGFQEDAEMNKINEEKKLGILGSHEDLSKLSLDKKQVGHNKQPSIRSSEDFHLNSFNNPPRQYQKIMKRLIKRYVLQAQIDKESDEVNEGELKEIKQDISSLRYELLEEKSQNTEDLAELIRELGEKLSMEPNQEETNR
Protocol: Oocyte Electrophysiology. Xenopus laevis oocytes were isolated from adult frogs (Kähler, Hamburg, Germany), dispersed and defolliculated by a 45 minute treatment with collagenase (type A, Boehringer, Germany), and were rinsed and kept at 18° C. in ND96-buffer (in mmol/l): NaCl 96, KCI 2, CaCl2 1.8, MgCl2 1, HEPES 5, Na-pyruvate 2.5, pH 7.55), supplemented with theophylline (0.5 mmol/l) and gentamycin (5 mg/l).
To prepare cRNAs for TRPC6, Podocin and Podocin-DPHB (Podocin-ΔPHB), cDNAs encoding TRPC6, Podocin and Podocin-DPHB were transcribed in vitro using the T7 promoter and polymerase (Promega, Madison, Wis.). After isolation from adult Xenopus laevis female frogs (Kähler, Hamburg, Germany), oocytes were dispersed and defolliculated by a 45 minute treatment with collagenase (type A, Boebringer, Germany). Subsequently, the oocytes were rinsed and kept at 18° C. in ND96-buffer (in mmol/l): NaCl 96, KCI 2, CaCI2 1.8, MgCI2 1, HEPES 5, Na-pyruvate 2.5, pH. […] Membrane currents were measured by voltage clamping of the oocytes (Warner oocyte clamp amplifier OC725C) in intervals from −60 to +40 mV, each 1 s. Conductances were calculated according to Ohm's law. Na^+ conductances were determined by replacing Na^+ by n-methyl-D-glucamine (GNMDG) in a Ca^2+ free bath solution, before and after stimulation with 10 μM dioctanoyl glycerol (Sigma, Germany). […]

Structure (SMILES): CC(C)CCC[C@@H](C)[C@H]1CC[C@H]2C3=CC=C4C[C@@H](O)CC[C@]4(C)[C@H]3CC[C@]12C [7-dehydro cholesterol]
- rescue of reduced touch sensitivity [1]: could be rescued

Structure (SMILES): CC(C)[C@@H](C)/C=C/[C@@H](C)[C@H]1CC[C@H]2C3=CC=C4C[C@@H](O)CC[C@]4(C)[C@H]3CC[C@]12C [ergosterol]
- rescue of reduced touch sensitivity [1]: could be rescued

Structure (SMILES): CC(C)CCC[C@@H](C)[C@H]1CC[C@H]2C3=CC[C@H]4C[C@@H](O)CC[C@]4(C)[C@H]3CC[C@]12C [lathosterol]
- rescue of reduced touch sensitivity [1]: could be rescued

Structure (SMILES): CCCCCCCC/C=C\CCCCCCCC(=O)OC[C@H](CO)OC(C)=O [OAG, 1-oleoyl-2-acetyl-sn-glycerol]
- inward Na+ current (TRPC6): further augmented
